“Also recorded” adds a separate entry of the source.
Experiments:
[1] = system: Pde6α^D670G mice; assay: Histological analysis of outer nuclear layer (ONL) thickness by number of photoreceptor cell nuclei; assay type: in vivo, mouse; conditions: vs untreated Pde6α^D670G mice, one month of age
Procedure: Histology—Mice were sacrificed and the eyes enucleated as previously described (19). Eyes were embedded in paraffin, sectioned, and stained with hematoxylin and eosin by Exaclibur Pathology, Inc. (Norman, OK), before being visualized by light microscopy (Leica DM 5000B, Leica Microsystems, Germany). Quantification of photoreceptor nuclei was conducted on several sections that contained the optic nerve, as follows: the distance between the optic nerve and the ciliary body was divided into four, approximately equal, quadrants. Three columns of nuclei (how many cell nuclei thick) were counted within each single quadrant. These counts were then used to determine the average thickness of the ONL for each individual animal at each time. Sectioning proceeded along the long axis of the segment, so that each section contained upper and lower retina as well as the posterior pole.
Gene ontology (GO) analysis was also performed in PANTHER.

[2] = system: Pde6α^D670G mice; assay: Electroretinography (ERG) of treated Pde6α^D670G arRP mice; conditions: vs untreated Pde6α^D670G mice, one month of age
Procedure: Mouse lines and husbandry—C57BL/6J-Pde6α^nmf363/nmf363, with a D670G mutation, herein referred to as Pde6α^D670G, mice were obtained from the Jackson Laboratory (Bar Harbor, ME, USA). Pde6α^D670G are co-isogenic in the C57BL/6J (B6) background; therefore, age-matched B6 mice were used as experimental controls. Mice were bred and maintained at the facilities of Columbia University and Stanford University. Animals were kept on a light-dark cycle (12 hour-12 hour). Food and water were available ad libitum throughout the experiment, whether treated or untreated. Dark-raising was performed under 24 hr dark cycle following approved institutional guidelines. […] All water bottles were covered in foil to reduce light exposure and changed weekly during the duration of the experiment following approved institutional guidelines.
Electroretinography (ERG)—Mice were dark-adapted overnight, manipulations were conducted under dim red-light illumination, and recordings were made using Espion or Celeris ERG Diagnosys equipment (Diagnosys LLL, Littleton, MA, USA) as previously described. Briefly, adult B6 control mice were tested at the beginning of each session to ensure equal readouts from the electrodes for both eyes before testing the experimental mice. Pupils were dilated using topical 2.5% phenylephrine hydrochloride and 1% tropicamide (Akorn Inc., Lakeforest, IL, USA). Mice were anesthetized by intraperitoneal injection of 0.1 ml/10 g body weight of anesthesia [1 ml ketamine 100 mg/ml (Ketaset III, Fort Dodge, IA, USA) and 0.1 ml xylazine 20 mg/ml (Lloyd Laboratories, Shenandoah, IA, USA) in 8.9 ml PBS]. Body temperature was maintained at 37° C. during the procedure. Both eyes were recorded simultaneously and responses were averaged for each trial. Responses were taken from the Espion/Celeris readout in microvolts.
Statistical and bioinformatics analysis—Results were also saved in Excel as .txt format and were uploaded into the Partek Genomics Suite 6.5 software package as described previously (5-9). The data was normalized to log base 2 and compared using 1-way ANOVA analysis. All proteins with non-significant (p>0.05) changes were eliminated from the table. The significant values were mapped using the ‘cluster based on significant genes’ visualization function with the standardization option chosen. […] Differences in experimental groups were determined by the Student's t-test as appropriate, or by one-way ANOVA followed by Tukey's post-hoc multiple comparison's test. p values <0.05 were considered significant. For ERG and histological analysis of mouse eyes, differences were determined by the Student's t-test as appropriate, or by one-way ANOVA followed by Tukey's post-hoc multiple comparison's test. p values<0.05 were considered significant.

| Structure (SMILES) | thickness of the outer nuclear layer (ONL) by number of photoreceptor cell nuclei [1] | maximum scotopic a-wave response, quantification of ERGs from a cohort of mice [2] | maximum scotopic b-wave response, quantification of ERGs from a cohort of mice [2] | rod photoreceptor cell response, quantification of ERGs from a cohort of mice [2] | rod photoreceptor cell response, scotopic 0.1 dim-light rod-specific ERG (representative traces) ([2]; vitamins 2.5 g/L or alpha-ketoglutarate 10 g/L in drinking water from P0, ketogenic diet from P21) |
| --- | --- | --- | --- | --- | --- |
| O=C(O)CCC(=O)C(=O)O [alpha-ketoglutarate, Alpha-ketoglutaric acid] | significant rescue of photoreceptor cells and their inner/outer segments; also recorded: significant increase in the thickness of the outer nuclear layer (ONL) | – | – | – | – |
| NC(=O)c1cccnc1 [vitamin B3, Nicotinamide] | – | no significant visual rescue | no significant visual rescue | no significant visual rescue | increased rod photoreceptor functional response |

— patent publication US12558336B2, “Metabolic rescue of retinal degeneration” (The Board of Trustees of the Leland Stanford Junior …, priority 2019, dated 2026)
